{"source": "paper PMC10178091", "about": "“The GRPR Antagonist [^99mTc]Tc-maSSS-PEG2-RM26 towards Phase I Clinical Trial: Kit Preparation, Characterization and Toxicity” (Diagnostics, 2023)", "key": {"GRPR on PC-3 cells": {"target": "T1, GRPR on PC-3 cells (Homo sapiens, UniProt P30550)", "T1 construct": "endogenous in cells; host or cells: PC-3 cells", "T1 sequence (P30550 whole entry)": "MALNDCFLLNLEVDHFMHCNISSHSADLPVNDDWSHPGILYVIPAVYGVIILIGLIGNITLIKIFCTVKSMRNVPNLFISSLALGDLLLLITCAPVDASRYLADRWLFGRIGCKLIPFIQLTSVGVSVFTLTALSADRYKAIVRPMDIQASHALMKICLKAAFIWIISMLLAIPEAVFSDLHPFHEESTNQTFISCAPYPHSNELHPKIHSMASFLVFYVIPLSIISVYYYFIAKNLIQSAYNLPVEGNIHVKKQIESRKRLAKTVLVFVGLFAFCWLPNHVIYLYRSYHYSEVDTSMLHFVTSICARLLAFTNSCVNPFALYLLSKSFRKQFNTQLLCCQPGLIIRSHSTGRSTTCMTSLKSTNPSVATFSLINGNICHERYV", "experiment": "In vitro binding specificity assay on PC-3 cells, with and without pre-blocking", "details": "1 nM", "experimental": "The radiolabeled peptide binding to GRPR was tested in PC-3 cells (GRPR +) by the addition of 1 nM of [^99mTc]Tc-maSSS-PEG2-RM26 to the cells (~10^6 cells, in triplicates), with and without pre-blocking of receptors, by the addition of 1 µM of NOTA-PEG2-RM26 (10 min at room temperature). After incubation at 37 °C for 1 h, the cells were treated with trypsin-EDTA, collected, and measured for their radioactivity content.\n(§1) Randomly selected vials were stored at 4 °C at our laboratory for long-term testing. Within 18 months of storage, the vials were radiolabeled under the same conditions mentioned earlier. Additionally, the GRPR-binding in vitro was tested on a different batch of PC-3 cells, following the same protocol mentioned earlier. The in vivo GRPR-targeting properties of [^99mTc]Tc-maSSS-PEG2-RM26 were tested on PC-3 tumor-bearing Balb/c nu/nu mice (the cells (6 × 10^6 cells/mouse) were inoculated into the mice 4 weeks prior to the experiment). On the day of the experiment, when palpable tumors developed, a group of mice (n = 4) was injected with [^99mTc]Tc-maSSS-PEG2-RM26 (30 kBq/40 pmol) and another group (n = 4) was additionally co-injected with NOTA-PEG2-RM26 (5 nmol) to block GRPR. The mice were euthanized 1 h post-injection and the organs of interest were collected, weighed, and measured for their radioactivity content."}, "GRPR [1]": {"target": "GRPR", "design": "method as in PMID 33573232", "details": "cited from earlier work"}, "[2]": {"design": "method as in PMID 36980517", "details": "phase I clinical study; cited from earlier work"}, "GRPR [3]": {"tested_on": "GRPR", "experiment": "Ex vivo biodistribution / in vivo GRPR targeting in PC-3 tumor-bearing mice", "design": "species or system Balb/c nu/nu mice", "details": "1 h pi, kit stored 18 months, p < 0.001, n = 4", "experimental": "as §1"}, "[4]": {"experiment": "Ex vivo biodistribution / in vivo GRPR targeting in PC-3 tumor-bearing mice", "design": "species or system Balb/c nu/nu mice", "details": "mouse, total radioactivity, 1 h pi, n = 4; for tissue to tissue ratio at 1 h: 40 pmol, ± SD", "experimental": "as §1"}, "GRPR [5]": {"target": "T2, GRPR (Homo sapiens, UniProt P30550)", "T2 construct": "endogenous in cells; host or cells: PC-3 xenograft tumours in Balb/c nu/nu mice", "T2 sequence (P30550 whole entry)": "as above", "experiment": "Ex vivo biodistribution / in vivo GRPR targeting in PC-3 tumor-bearing mice", "design": "species or system Balb/c nu/nu mice", "details": "1 h pi, kit stored 18 months, p < 0.001, n = 4", "experimental": "as §1"}}, "note": "Read-outs that look alike come from different tables or passages of the source. Where a SMILES comes first, the peptide text is derived from it. [ ]: non-standard residue; d: D form. The star is where a group is joined. Sta = CC(C)C[C@H](N)[C@@H](O)CC(=O)O; Mercaptoacetyl = O=C(CS)*; AEEA = NCCOCCOCC(=O)O"}
{"smiles": "CC(C)C[C@H](NC(=O)C[C@H](O)[C@H](CC(C)C)NC(=O)[C@H](Cc1c[nH]cn1)NC(=O)CNC(=O)[C@@H](NC(=O)[C@H](C)NC(=O)[C@H](Cc1c[nH]c2ccccc12)NC(=O)[C@H](CCC(N)=O)NC(=O)[C@@H](Cc1ccccc1)NC(=O)COCCOCCNC(=O)[C@H](CO)NC(=O)[C@H](CO)NC(=O)[C@H](CO)NC(=O)CS)C(C)C)C(N)=O", "note": "[[^99mTc]Tc-maSSS-PEG2-RM26, metal not drawn] (Mercaptoacetyl-SSS[AEEA][dF]QWAVGH[Sta]L-NH2)", "values": [{"measurement": "Cell-associated radioactivity, non-blocked versus pre-blocked receptors", "setting": "GRPR on PC-3 cells; freshly prepared kit, 1 h at 37 °C, pre-blocking with 1 µM NOTA-PEG2-RM26, p < 0.0001, n = 3", "result": "significant difference"}, {"measurement": "Binding to non-blocked GRPR versus pre-blocked GRPR on PC-3 cells", "setting": "GRPR on PC-3 cells; kit stored for 18 months, purified with Sep-Pak, pre-blocking with 1 µM NOTA-PEG2-RM26", "result": "significantly higher"}, {"measurement": "Equilibrium dissociation constant", "setting": "GRPR [1]", "result": "low nanomolar range"}, {"measurement": "Absorbed doses in healthy organs and tissues", "setting": "[2]", "result": "low absorbed doses"}, {"measurement": "Tolerability of single injections", "setting": "[2]", "result": "well tolerated"}, {"measurement": "Difference in pancreatic uptake between non-blocked and blocked groups", "setting": "GRPR [3]", "result": 4, "unit": "fold"}, {"measurement": "tissue uptake at 1 h", "setting": "[4]; Balb/c nu/nu, blood, PC-3 xenografts, 40 pmol / 30 kBq co-injected with 5 nmol NOTA-PEG2-RM26, average ± SD, read-out: Uptake in blood, blocked", "result": "0.3 ± 0.4", "unit": "%ID/g"}, {"measurement": "tissue uptake at 1 h", "setting": "[4]; Balb/c nu/nu, bone, PC-3 xenografts, 40 pmol / 30 kBq co-injected with 5 nmol NOTA-PEG2-RM26, average ± SD, read-out: Uptake in bone, blocked", "result": "0.042 ± 0.009", "unit": "%ID/g"}, {"measurement": "tissue uptake at 1 h", "setting": "[4]; Balb/c nu/nu, kidneys, PC-3 xenografts, 40 pmol / 30 kBq co-injected with 5 nmol NOTA-PEG2-RM26, average ± SD, read-out: Uptake in kidneys, blocked", "result": "5 ± 0.6", "unit": "%ID/g"}, {"measurement": "tissue uptake at 1 h", "setting": "[4]; Balb/c nu/nu, liver, PC-3 xenografts, 40 pmol / 30 kBq co-injected with 5 nmol NOTA-PEG2-RM26, average ± SD, read-out: Uptake in liver, blocked", "result": "1.7 ± 0.4", "unit": "%ID/g"}, {"measurement": "tissue uptake at 1 h", "setting": "[4]; Balb/c nu/nu, muscle, PC-3 xenografts, 40 pmol / 30 kBq co-injected with 5 nmol NOTA-PEG2-RM26, average ± SD, read-out: Uptake in muscle, blocked", "result": "0.032 ± 0.008", "unit": "%ID/g"}, {"measurement": "tissue uptake at 1 h", "setting": "[4]; Balb/c nu/nu, pancreas, PC-3 xenografts, 40 pmol / 30 kBq co-injected with 5 nmol NOTA-PEG2-RM26, average ± SD, read-out: Uptake in pancreas, blocked", "result": "1.4 ± 0.1", "unit": "%ID/g"}, {"measurement": "tissue uptake at 1 h", "setting": "[4]; Balb/c nu/nu, spleen, PC-3 xenografts, 40 pmol / 30 kBq co-injected with 5 nmol NOTA-PEG2-RM26, average ± SD, read-out: Uptake in spleen, blocked", "result": "0.13 ± 0.06", "unit": "%ID/g"}, {"measurement": "tissue to tissue ratio at 1 h", "setting": "[4]; Balb/c nu/nu, tumor and blood, PC-3 xenografts, read-out: Tumor-to-blood ratio, non-blocked group", "result": "30 ± 4"}, {"measurement": "tissue to tissue ratio at 1 h", "setting": "[4]; Balb/c nu/nu, tumor and bone, PC-3 xenografts, read-out: Tumor-to-bone ratio, non-blocked group", "result": "78 ± 42"}, {"measurement": "tissue to tissue ratio at 1 h", "setting": "[4]; Balb/c nu/nu, tumor and kidneys, PC-3 xenografts, read-out: Tumor-to-kidneys ratio, non-blocked group", "result": "1.3 ± 0.2"}, {"measurement": "tissue to tissue ratio at 1 h", "setting": "[4]; Balb/c nu/nu, tumor and liver, PC-3 xenografts, read-out: Tumor-to-liver ratio, non-blocked group", "result": "2 ± 0.4"}, {"measurement": "tissue to tissue ratio at 1 h", "setting": "[4]; Balb/c nu/nu, tumor and muscle, PC-3 xenografts, read-out: Tumor-to-muscle ratio, non-blocked group", "result": "125 ± 50"}, {"measurement": "tissue to tissue ratio at 1 h", "setting": "[4]; Balb/c nu/nu, tumor and pancreas, PC-3 xenografts, read-out: Tumor-to-pancreas ratio, non-blocked group", "result": "1.1 ± 0.2"}, {"measurement": "tissue to tissue ratio at 1 h", "setting": "[4]; Balb/c nu/nu, tumor and spleen, PC-3 xenografts, read-out: Tumor-to-spleen ratio, non-blocked group", "result": "51 ± 18"}, {"measurement": "tissue uptake at 1 h", "setting": "[4]; Balb/c nu/nu, tumor, PC-3 xenografts, 40 pmol / 30 kBq co-injected with 5 nmol NOTA-PEG2-RM26, average ± SD, read-out: Uptake in tumor, blocked", "result": "0.89 ± 0.07", "unit": "%ID/g"}, {"measurement": "tissue uptake at 1 h", "setting": "[4]; blood, Balb/c nu/nu mice with PC-3 xenografts, 40 pmol / 30 kBq, kit stored 18 months, average ± SD, read-out: Uptake in blood, non-blocked", "result": "0.3 ± 0.2", "unit": "%ID/g"}, {"measurement": "tissue uptake at 1 h", "setting": "[4]; bone, Balb/c nu/nu mice with PC-3 xenografts, 40 pmol / 30 kBq, kit stored 18 months, average ± SD, read-out: Uptake in bone, non-blocked", "result": "0.09 ± 0.05", "unit": "%ID/g"}, {"measurement": "tissue uptake at 1 h", "setting": "[4]; kidneys, Balb/c nu/nu mice with PC-3 xenografts, 40 pmol / 30 kBq, kit stored 18 months, average ± SD, read-out: Uptake in kidneys, non-blocked", "result": "5 ± 0.4", "unit": "%ID/g"}, {"measurement": "tissue uptake at 1 h", "setting": "[4]; liver, Balb/c nu/nu mice with PC-3 xenografts, 40 pmol / 30 kBq, kit stored 18 months, average ± SD, read-out: Uptake in liver, non-blocked", "result": "2.9 ± 0.8", "unit": "%ID/g"}, {"measurement": "tissue uptake at 1 h", "setting": "[4]; muscle, Balb/c nu/nu mice with PC-3 xenografts, 40 pmol / 30 kBq, kit stored 18 months, average ± SD, read-out: Uptake in muscle, non-blocked", "result": "0.05 ± 0.02", "unit": "%ID/g"}, {"measurement": "tissue uptake at 1 h", "setting": "[4]; pancreas, Balb/c nu/nu mice with PC-3 xenografts, 40 pmol / 30 kBq, kit stored 18 months, average ± SD, read-out: Uptake in pancreas, non-blocked", "result": "6 ± 1", "unit": "%ID/g"}, {"measurement": "tissue uptake at 1 h", "setting": "[4]; spleen, Balb/c nu/nu mice with PC-3 xenografts, 40 pmol / 30 kBq, kit stored 18 months, average ± SD, read-out: Uptake in spleen, non-blocked", "result": "0.13 ± 0.05", "unit": "%ID/g"}, {"measurement": "tissue uptake at 1 h", "setting": "[4]; tumor, Balb/c nu/nu mice with PC-3 xenografts, 40 pmol / 30 kBq, kit stored 18 months, average ± SD, read-out: Uptake in tumor, non-blocked", "result": "6 ± 1", "unit": "%ID/g"}, {"measurement": "Difference in PC-3 tumor uptake between non-blocked and blocked groups", "setting": "GRPR [5]", "result": 6, "unit": "fold"}]}
